Measured values reported in patent US20200291100A1, “TREATMENT OF AGE-RELATED AND MITOCHONDRIAL DISEASES BY INHIBITION OF HIF-1 ALPHA FUNCTION” (President and Fellows of Harvard College, priority 2012, published 2020).

Key:
Format in all cases: cell-based, mouse
[1] = system: primary PGC-1α/β KO myotubes; test: NMN with or without HIF stabilizing compounds in PGC-1α/β KO myotubes, qPCR of mitochondrially-encoded ETC genes; conditions: HIF stabilizing compound added to NMN-treated cells; 1 mM DMOG or 10 μM DFO, 12 hours
Experimental: As a functional test of whether NMN reverses genome asynchrony by depleting cells of HIF-1α, primary PGC-1α/β KO myotubes were incubated with NMN in the presence and absence of the HIF stabilizing compounds DMOG and DFO. […] Primary myoblasts cells were isolated from WT, SIRT1 KO (Price et al., 2012) and PGC-1α/β KO (Zechner et al., 2010) mice as previously described (Price et al., 2012). WT and PGC-1α/β KO primary myoblasts were plated and allowed to differentiate into myotubes by replacing the media with low glucose DMEM supplemented with 2% horse serum (Sigma-Aldrich) for 4 days. After the differentiation the cells were infected with empty vector or flag-SIRT1 adenovirus as described before ([…] al., 2007). Media was replaced with fresh DMEM supplemented with 2% horse serum (Sigma-Aldrich) for an additional 48 hr and, after that the cells were harvested for the different assays as described. […] Quantitative RT-PCR reactions were performed using 1 μM of primers and LightCycler® 480 SYBR Green Master (Roche) on an LightCycler® 480 detection system (Roche). Calculations were performed by a comparative method (2-ΔCT) using 18S as an internal control. For mtDNA analysis, total DNA was extracted with DNeasy blood and tissue kit (Qiagen). mtDNA was amplified using primers specific for the mitochondrial cytochrome c oxidase subunit 2 (COX2) gene and normalized to genomic DNA by amplification of the ribosomal protein s18 (rps18) nuclear gene. Primers were designed using the IDT software (IDT) and the primer sequences can be found in Table 1.

[2] = system: PGC-1α/β knockout myotubes; test: HIF stabilizing compounds in PGC-1α/β knockout myotubes with or without SIRT1 overexpression; conditions: SIRT1 adenovirus; 1 mM DMOG or 10 μM DFO, 12 hours
Experimental: Next whether the ability of SIRT1 to regulate mitochondrial function independently of PGC-1α/β is mediated by HIF-1α was tested. […] Furthermore, cells expressing a mutant allele of HIF-1α that is constitutively stabilized due to the replacement of the two hydroxylated prolines with alanines (DPA) (FIG. 7A), caused genome asynchrony similar to hypoxia and treatment with DMOG (FIG. 7B).
Primary myoblasts cells were isolated from WT, SIRT1 KO (Price et al., 2012) and PGC-1α/β KO (Zechner et al., 2010) mice as previously described (Price et al., 2012). WT and PGC-1α/β KO primary myoblasts were plated and allowed to differentiate into myotubes by replacing the media with low glucose DMEM supplemented with 2% horse serum (Sigma-Aldrich) for 4 days. After the differentiation the cells were infected with empty vector or flag-SIRT1 adenovirus as described before (Gerhart-Hines et al., 2007). Media was replaced with fresh DMEM supplemented with 2% horse serum (Sigma-Aldrich) for an additional 48 hr and, after that the cells were harvested for the different assays as described. To investigate the role of HIF-1α in genome asynchrony, PGC-1α/β KO primary myotubes were treated for 12 hours with 1 mM DMOG (Sigma) or 10 μM DFO (Sigma), 24 h after infection with empty vector of flag-SIRT1 adenovirus or after 12 h treatment with […] NMN (Sigma).
RNA from skeletal muscle tissue and C2C12 cells were extracted with RNeasy mini kit (Qiagen) according to the instructions and quantified using the NanoDrop 1000 spectrophotometer (Thermo Scientific). cDNA was synthesized with the iSCRIP cDNA synthesis kit (BioRad) using 600 ng of RNA. Quantitative RT-PCR reactions were performed using 1 μM of primers and LightCycler® 480 SYBR Green Master (Roche) on an LightCycler® 480 detection system (Roche). Calculations were performed by a comparative method (2-ΔCT) using 18S as an internal control. For mtDNA analysis, total DNA was extracted with DNeasy blood and tissue kit (Qiagen). mtDNA was amplified using primers specific for the mitochondrial cytochrome c oxidase subunit 2 (COX2) gene and normalized to genomic DNA by amplification of the ribosomal protein s18 (rps18) nuclear gene. […]
Protein extracts from tissue or C2C12 cells were obtained by lysis in ice-cold lysis buffer (150 mM NaCl, 10 mM Tris HCl (pH 7.4), 1 mM EDTA, 1 mM EGTA, 1% Triton X-100, 0.5% NP-40) supplemented with a cocktail of protease and phosphatase inhibitors (Roche). Protein content was determined by the Bradford protein assay (Biorad), and 50 μg proteins were run on SDS-PAGE under reducing conditions. […] The immunostaining was detected using horseradish peroxidase-conjugated anti-rabbit or anti-mouse immunoglobulin for 1 h at room temperature.

C2C12 cells = test: SIRT1 inhibition with EX-527 in C2C12 cells; conditions: 10 μM EX-527, 12 h
Experimental: Having shown that HIF-1α stabilization was sufficient to induce genome asynchrony, it was next tested whether it was necessary. […] Knockdown of HIF-1α in C2C12 cells treated with the SIRT1 inhibitor EX-527 prevented genome asynchrony and decline in mitochondrial function, as evidenced by the maintenance of mtDNA content (FIG. 7F), mitochondrial ETC gene expression (FIG. 7G), mitochondrial membrane potential ([…]) and ATP levels (FIG. 7I).
C2C12 cell line (ATCC) was cultured in low glucose Dulbecco's modified eagle medium (DMEM) (Invitrogen) supplemented with 10% FBS (Invitrogen) and a mix of antibiotic and antimycotic (Invitrogen). To inhibit SIRT1, cells were treated the vehicle (0.001% DMSO) or 10 μM EX-527 (Tocris) for 12 h. C2C12 myoblasts were infected with an empty or SIRT1 adenovirus as described before (Gerhart-Hines et al., 2007) and the media was replaced with fresh DMEM for additional 48 h, after that the cells were treated as described before. To test the effects of hypoxia and HIFα stabilization in genome asyncrony, C2C12 myoblasts were exposed to 1% oxygen for 16 h or treated with the vehicle (0.001% DMSO) or DMOG (Cayman) for the same period of time.

PGC-1α/β KO myotubes = test: EX-527 in PGC-1α/β KO myotubes reconstituted with WT or T177A/S538A PGC-1α, qPCR; conditions: EX-527 48 h
Experimental: RNA from skeletal muscle tissue and C2C12 cells were extracted with RNeasy mini kit (Qiagen) according to the instructions and quantified using the NanoDrop 1000 spectrophotometer (Thermo Scientific). cDNA was synthesized with the iSCRIP cDNA synthesis kit (BioRad) using 600 ng of RNA. Quantitative RT-PCR reactions were performed using 1 μM of primers and LightCycler® 480 SYBR Green Master (Roche) on an LightCycler® 480 detection system (Roche). Calculations were performed by a comparative method (2-ΔCT) using 18S as an internal control. For mtDNA analysis, total DNA was extracted with DNeasy blood and tissue kit (Qiagen). mtDNA was amplified using primers specific for the mitochondrial cytochrome c oxidase subunit 2 (COX2) gene and normalized to genomic DNA by amplification of the ribosomal protein s18 (rps18) nuclear gene. Primers were designed using the IDT software (IDT) and the primer sequences can be found in Table 1.
AMPK-DN blocked the decrease in nuclear-encoded genes observed 48 h after treatment with OHT, but not the decline in mitochondrial-encoded genes (FIG. 13G). In order to determine if this AMPK affect is through PGC-1α PGC-1α/β KO myotubes were reconstituted with either a WT PGC-1α or an AMPK insensitive version of PGC-1α (PGC-1α T177A/S538A) (FIG. 20F). […]

primary myoblasts = test: Lactate treatment of primary WT myoblasts, NAD+/NADH ratio and HIF-1α immunoblot; conditions: 10 mM lactate, 24 h
Excerpt: FIGS. 21A-21N provide additional data related to the content of FIG. 14. FIG. 21A depicts HIF-1α target genes (PGK-1, Glut1, PDK1 and Vegfa) expression in gastrocnemius of WT and SIRT1 KO mice. Relative expression values were normalized to WT mice (n=5). FIG. 21B depicts hypoxia response element activity in primary myoblasts isolated from WT and SIRT1 KO mice and treated with or without DMOG. Relative luciferase activity was normalized to WT cells (n=6, *p<0.05 versus WT). FIG. 21C depicts a representative immunoblot of HIF-1a and Tubulin in PGC-1α/β KO myotubes treated with adenovirus overexpressing SIRT1 or empty vector as well as treatment with DMSO or with HIF stabilizing compound DMOG. FIG. 21D depicts NAD+/NADH ration measured in primary WT myoblasts treated with either 10 mM pyruvate, 10 mM lactate or vehicle for 24 h (n=4). […] FIG. 21J depicts mitochondrial DNA content analyzed by qPCR in control, HIF-1α DPA or HIF-2α DPA C2C12 cells treated with adenovirus overexpressing SIRT1 or empty vector. […] FIG. 21K depicts ARNT mRNA analyzed by qPCR in C2C12 cells infected with ARNT or nontargeting shRNA. […] FIG. 21L depicts mitochondrial DNA content analyzed by qPCR in C2C12 cells infected with ARNT or nontargeting shRNA. […] FIG. 21M depicts ND1, Cytb, COX1 and ATP6 mRNA analyzed by qPCR in C2C12 cells infected with ARNT or nontargeting shRNA. […] Values are expressed as mean±SEM. […]

Compound: CC(=O)N(O)CCCCCNC(=O)CCC(=O)N(O)CCCCCNC(=O)CCC(=O)N(O)CCCCCN [DFO, desferrioxamine]
- effect on NMN-induced expression of mitochondrially-encoded ETC genes [1]: completely abolished
- effect on induction of mitochondrial ETC genes by SIRT1 overexpression [2]: completely blocked

Compound: NC(=O)C1CCCc2c1[nH]c1ccc(Cl)cc21 (stereo not shown) [EX-527]
- genome asynchrony (C2C12 cells): induced
- expression of nuclear- and mitochondrial-encoded genes (PGC-1α/β KO myotubes; in the presence of WT PGC-1α): decreased both nuclear- and mitochondrial-encoded genes
- expression of nuclear- and mitochondrial-encoded genes (PGC-1α/β KO myotubes; in the presence of the PGC-1α T177A/S538A mutant): only the mitochondrial-encoded genes decreased

Compound: CC(O)C(=O)O (stereo not shown) [lactate]
- HIF-1α protein (immunoblot) (primary myoblasts): induces HIF-1α protein stabilization
- NAD+/NADH ratio (primary myoblasts): decreasing
